Laboratory results reported in publication PMC5818615, “Use of HuH6 and other human-derived hepatoma lines for the detection of genotoxins: a new hope for laboratory animals?” (Archives of Toxicology, 2017).
Like-named read-outs stand apart in the source and are kept apart here.

What was measured:
[1] = ref IARC [1993]; cited from earlier work
HepaRG cells = conditions: for Result of SCGE experiments (in words): HepaRG cells; for % DNA in tail: HepaRG, 48 h
Description: (§1) The SCGE experiments were conducted as described in an international guideline (Tice et al. [2000]). Reagents for the assays (lysis solution and alkaline electrophoresis buffer) and agarose-coated slides were prepared according to Collins and Dusinska ([2009]).
(§2) Briefly, cells were sub-cultured in 1.0 ml medium in 24–well tissue-culture plates (Sarstedt Inc., Newton, NC, USA). After 24 h, the media were changed and the cells exposed to different concentrations of the test compounds or to the solvent controls (PBS or DMSO). […] To terminate the treatment, the cells were washed twice with PBS (1.0 ml), trypsinized (100 µl T/E per well, 4 min) and then resuspended in 400 µl culture medium containing FBS. Subsequently, the suspensions were transferred to Eppendorf tubes and centrifuged (200g, 5 min). Cell pellets were resuspended in cold PBS.
(§3) In all experiments, acute toxic effects were determined with a CASY® Cell Counter and Analyzer System (Schärfe-System GmbH, Reutlingen, Germany) (Lindl et al. [2005]). SCGE assays were only performed when the viability of the cultures was ≥ 70% (Koppen et al. [2017]). Per experimental point, two cultures were set up in parallel and from each one slide with two separate gels (30,000 cells/gel) was prepared. After unwinding (40 min, pH > 13) and electrophoresis (30 min, 0.75 V/cm, ~ 300 mA, 4 °C, pH > 13), 50 cells were evaluated per gel (200 cells per experimental point). As an endpoint, we determined the tail intensities (“% DNA in tail”) with a computer-aided system Comet Assay IV (Perceptive Instruments, Bury St Edmunds, UK), which is at present the most widely used parameter (Collins et al. [2008]; Moller [2006]). For each gel, the median of the tail intensity was calculated.

JHH6 cells = conditions: 48 h, control 0.59 ± 0.21
Description: as §1, §2, §3

HepG2 cells = conditions: 48 h
Description: as §1, §2, §3

PLC/PRF cells = conditions: PLC/PRF, 48 h
Description: as §1, §2, §3

SNU-398 cells = conditions: 48 h
Description: as §1, §2, §3

HuH6 cells = conditions: 48 h
Description: as §1, §2, §3

HCC 1.2 cells = conditions: 48 h
Description: as §1, §2, §3

HuH7 cells = conditions: 48 h
Description: as §1, §2, §3

SK-Hep1 cells = conditions: 48 h
Description: as §1, §2, §3

SNU-449 cells = conditions: 48 h
Description: as §1, §2, §3

Hep3B cells = conditions: Hep3B, 48 h
Description: as §1, §2, §3

[2] = tested on: human derived liver cell lines; conditions: for Number of the twelve lines sensitive towards the compound: SCGE experiments without exogenous enzyme activation mix
Description: as §1, §2, §3

WRL68 cells = conditions: 48 h
Description: as §1, §2, §3

[3] = tested on: primary human hepatocytes; conditions: ref Wilkening et al. [2003]; cited from earlier work

Compound: Cn1c(N)nc2c3cccnc3ccc21 [IQ, 2-amino-3-methyl-3H-imidazo[4,5-f]quinolone]
- IARC classification [1]: Causes guanine adducts, clear evidence for carcinogenicity in experiments with rodents IARC: Group 2A
- Result of SCGE experiments (in words) (HepaRG cells): negative results
- % DNA in tail (HepaRG cells; IQ 50.0 µM, control 2.34 ± 2.92): 2.39 ± 4.10%
- % DNA in tail (HepaRG cells; IQ 100.0 µM, control 2.34 ± 2.92): 2.38 ± 1.97%
- % DNA in tail (JHH6 cells; JHH6, IQ 50.0 µM): 1.29 ± 1.55%
- % DNA in tail (JHH6 cells; JHH6, IQ 100.0 µM): 0.93 ± 0.67%
- % DNA in tail (HepG2 cells; HepG2, IQ 50.0 µM, control 2.16 ± 0.54): 1.32 ± 0.91%
- % DNA in tail (HepG2 cells; HepG2, IQ 100.0 µM, control 2.16 ± 0.54, starred P ≤ 0.05): 5.38 ± 2.02%
- % DNA in tail (PLC/PRF cells; IQ 50.0 µM, control 2.47 ± 2.08): 5.17 ± 4.50%
- % DNA in tail (PLC/PRF cells; IQ 100.0 µM, control 2.47 ± 2.08): 2.84 ± 2.65%
- % DNA in tail (SNU-398 cells; SNU-398, IQ 50.0 µM, control 1.02 ± 0.88): 1.42 ± 0.72%
- % DNA in tail (SNU-398 cells; SNU-398, IQ 100.0 µM, control 1.02 ± 0.88): 1.20 ± 0.81%
- % DNA in tail (HuH6 cells; HuH6, IQ 50.0 µM, control 4.01 ± 1.68): 5.91 ± 3.05%
- % DNA in tail (HuH6 cells; HuH6, IQ 100.0 µM, control 4.01 ± 1.68, starred P ≤ 0.05): 10.82 ± 5.71%
- % DNA in tail (HCC 1.2 cells; HCC 1.2, IQ 50.0 µM, control 2.93 ± 1.40): 1.86 ± 0.44%
- % DNA in tail (HCC 1.2 cells; HCC 1.2, IQ 100.0 µM, control 2.93 ± 1.40, starred P ≤ 0.05): 7.29 ± 1.87%
- % DNA in tail (HuH7 cells; HuH7, IQ 50.0 µM, control 1.29 ± 1.30): 2.16 ± 0.91%
- % DNA in tail (HuH7 cells; HuH7, IQ 100.0 µM, control 1.29 ± 1.30): 1.11 ± 0.60%
- % DNA in tail (SK-Hep1 cells; SK-Hep1, IQ 50.0 µM, control 0.59 ± 0.24): 0.62 ± 0.47%
- % DNA in tail (SK-Hep1 cells; SK-Hep1, IQ 100.0 µM, control 0.59 ± 0.24): 1.43 ± 0.95%
- % DNA in tail (SNU-449 cells; SNU-449, IQ 50.0 µM, control 1.20 ± 1.18): 3.67 ± 2.95%
- % DNA in tail (SNU-449 cells; SNU-449, IQ 100.0 µM, control 1.20 ± 1.18): 1.46 ± 1.21%
- % DNA in tail (Hep3B cells; IQ 50.0 µM, control 0.92 ± 0.58): 0.88 ± 0.71%
- % DNA in tail (Hep3B cells; IQ 100.0 µM, control 0.92 ± 0.58): 1.75 ± 1.45%
- Number of the twelve lines sensitive towards the compound [2]: three
- Doses required to cause significant effects in SCGE assays ([2]; different hepatic lines, in most cases): ≥ 100 mM
- % DNA in tail (WRL68 cells; WRL68, IQ 50.0 µM, control 0.76 ± 0.77): 1.15 ± 1.44%
- % DNA in tail (WRL68 cells; WRL68, IQ 100.0 µM, control 0.76 ± 0.77): 0.56 ± 0.67%

Compound: Cn1c(N)nc2ncc(-c3ccccc3)cc21 [PhIP, 2-amino-1-methyl-6-phenylimidazo[4,5-b]pyridine]
- Sensitivity of primary hepatocytes compared with HepG2 [3]: substantially stronger effects
- IARC classification [1]: Causes guanine adducts that induces tumors at multiple sites in animal models IARC: Group 2B
- Result of SCGE experiments (in words) (HepaRG cells): detected
- % DNA in tail (HepaRG cells; PhIP 50.0 µM, control 0.53 ± 0.66, starred P ≤ 0.05): 4.82 ± 3.57%
- % DNA in tail (HepaRG cells; PhIP 100.0 µM, control 0.53 ± 0.66): 2.86 ± 1.73%
- % DNA in tail (JHH6 cells; JHH6, PhIP 50.0 µM): 0.93 ± 1.09%
- % DNA in tail (JHH6 cells; JHH6, PhIP 100.0 µM): 1.44 ± 0.53%
- % DNA in tail (HepG2 cells; HepG2, PhIP 50.0 µM, control 2.90 ± 1.03, starred P ≤ 0.05): 6.92 ± 2.00%
- % DNA in tail (HepG2 cells; HepG2, PhIP 100.0 µM, control 2.90 ± 1.03, starred P ≤ 0.05): 6.78 ± 1.37%
- % DNA in tail (PLC/PRF cells; PhIP 50.0 µM, control 3.82 ± 1.22): 2.51 ± 0.56%
- % DNA in tail (PLC/PRF cells; PhIP 100.0 µM, control 3.82 ± 1.22): 4.00 ± 3.72%
- % DNA in tail (PLC/PRF cells; PhIP 300.0 µM, control 3.82 ± 1.22): 2.43 ± 2.03%
- % DNA in tail (SNU-398 cells; SNU-398, PhIP 50.0 µM, control 5.60 ± 3.26): 2.92 ± 1.18%
- % DNA in tail (SNU-398 cells; SNU-398, PhIP 100.0 µM, control 5.60 ± 3.26): 7.04 ± 5.97%
- % DNA in tail (SNU-398 cells; SNU-398, PhIP 300.0 µM, control 5.60 ± 3.26): 10.3 ± 1.06%
- % DNA in tail (HuH6 cells; HuH6, PhIP 50.0 µM, control 1.81 ± 1.15, starred P ≤ 0.05): 11.51 ± 3.64%
- % DNA in tail (HuH6 cells; HuH6, PhIP 100.0 µM, control 1.81 ± 1.15, starred P ≤ 0.05): 8.67 ± 2.67%
- % DNA in tail (HuH6 cells; HuH6, PhIP 300.0 µM, control 1.81 ± 1.15, starred P ≤ 0.05): 24.7 ± 2.15%
- % DNA in tail (HCC 1.2 cells; HCC 1.2, PhIP 50.0 µM, control 6.61 ± 2.14, starred P ≤ 0.05): 17.5 ± 4.84%
- % DNA in tail (HCC 1.2 cells; HCC 1.2, PhIP 100.0 µM, control 6.61 ± 2.14, starred P ≤ 0.05): 15.1 ± 2.32%
- % DNA in tail (HCC 1.2 cells; HCC 1.2, PhIP 300.0 µM, control 6.61 ± 2.14, starred P ≤ 0.05): 14.8 ± 2.63%
- % DNA in tail (HuH7 cells; HuH7, PhIP 50.0 µM, control 5.12 ± 1.05): 5.35 ± 2.84%
- % DNA in tail (HuH7 cells; HuH7, PhIP 100.0 µM, control 5.12 ± 1.05): 9.21 ± 2.26%
- % DNA in tail (HuH7 cells; HuH7, PhIP 300.0 µM, control 5.12 ± 1.05): 3.55 ± 2.08%
- % DNA in tail (SK-Hep1 cells; SK-Hep1, PhIP 50.0 µM, control 2.84 ± 2.06): 5.18 ± 1.19%
- % DNA in tail (SK-Hep1 cells; SK-Hep1, PhIP 100.0 µM, control 2.84 ± 2.06): 5.83 ± 1.06%
- % DNA in tail (SK-Hep1 cells; SK-Hep1, PhIP 300.0 µM, control 2.84 ± 2.06): 5.77 ± 4.30%
- % DNA in tail (SNU-449 cells; SNU-449, PhIP 50.0 µM, control 2.12 ± 0.59): 2.02 ± 0.81%
- % DNA in tail (SNU-449 cells; SNU-449, PhIP 100.0 µM, control 2.12 ± 0.59): 3.06 ± 1.08%
- % DNA in tail (SNU-449 cells; SNU-449, PhIP 300.0 µM, control 2.12 ± 0.59): 1.17 ± 0.83%
- % DNA in tail (Hep3B cells; PhIP 50.0 µM, control 1.56 ± 0.18): 1.43 ± 0.24%
- % DNA in tail (Hep3B cells; PhIP 100.0 µM, control 1.56 ± 0.18): 0.82 ± 0.53%
- Number of the twelve lines sensitive towards the compound [2]: four
- % DNA in tail (WRL68 cells; WRL68, PhIP 50.0 µM, control 2.89 ± 1.16): 5.17 ± 3.21%
- % DNA in tail (WRL68 cells; WRL68, PhIP 100.0 µM, control 2.89 ± 1.16): 3.77 ± 1.36%
- % DNA in tail (WRL68 cells; WRL68, PhIP 300.0 µM, control 2.89 ± 1.16): 3.39 ± 3.35%
